The source of these data is PMC6680840 (Molecules, 2019).

“Also recorded” adds a separate entry of the source.

The subject of series [1] is Aβ1-42-induced toxicity in SH-SY5Y cells. Briefly: Protective activity against Aβ1-42-induced toxicity, MTT method. It counts as cell-based. Conditions: for viability at 5 µM / viability at 10 µM: Homo sapiens, SH-SY5Y, 24 h, read-out: cell viability of Aβ1-42-treated SH-SY5Y cells. As to the method: Based on this observation, compound 23 might be a more promising protective agent against Aβ1-42-induced toxicity on the SH-SY5Y cell model.
(§1) The MTT method was used to test the cytotoxicity and neuroprotective activity evaluation of compounds. The detailed procedure was included in Supplementary Materials. […]
(§2) formazan crystals. The formazan dye product was measured by the absorbance at 490 nm on a Tecan Spark multimode microplate reader (Tecan, Switzerland).
(§3) Neuroprotective activity assay
SH-SY5Y cells were maintained at 37 °C in a humidified atmosphere containing 5% CO2. Cells were seeded into multi-well plates at a density of 2~2.5 × 10^5 cells/mL in DMEM medium, supplemented with 10% heat-inactivated bovine calf serum (Gibco, South America Origin). Experiments were carried out in 24 h after cells were seeded.
Aβ1–42 were stored at 4 °C until 0.1 mM stock solutions were prepared in phosphate bufer saline (PBS) on the day of application to cultures. Th e compounds were first dissolved with DMSO and then diluted with DMEM medium. After pretreatment with the compounds for 2 h, Aβ1–42 were added to SH-SY5Y cell cultures in 24 h. Assays for cell viability were performed in 24 h after cultured in fresh medium .

The next series concerns the target T1, BChE (Homo sapiens, UniProt P06276).
T1 construct: BChE (EC 3.1.1.8, from human serum); purchased Sigma-Aldrich (St. Louis, MO, USA); host or cells: human serum
Briefly: Kinetic study of BChE inhibition (Lineweaver-Burk). In kind it is biochemical. The method, then: To further understand the action mechanism for BChE inhibition of this series of compounds, the kinetic assay was performed with the optimal compound 23 as a model compound. […]. […] The result was confirmed by the subsequent molecular docking study of 23. […].
Kinetic study of BChE inhibition was performed by using Ellman’s method as described in Section 3.3.
Figure 3 Kinetic study of 23 on BChE inhibition. […];

The next series concerns the target T2, Aβ1-42 aggregation (Homo sapiens, UniProt P05067).
T2 construct: pre-treated Aβ1–42 (GL Biochem Ltd); purchased GL Biochem Ltd, shanghai, China
Briefly: Inhibition of Aβ1-42 aggregation, thioflavin T (ThT) method. In kind it is biochemical. Conditions: for inhibitory activity against Aβ1-42 aggregation (in words): 1 to 10 μM; for inhibition ratio towards Aβ1-42 aggregation: at 10 μM.

Series [2] deals with SH-SY5Y neuroblastoma cells. Briefly: Cell viability (cytotoxicity) MTT assay. Conditions: tested concentrations up to 200 μM. It counts as cell-based. The method, then:
as §1
42 and ThT; in the presence of Aβ1–42 and THT but no inhibitors; and the blanks […]
SH-SY5Y cells were inoculated into 96-well plates, and each well was seeded with […]. After incubation for 24 h, the medium was removed and replaced with 100 µL medium containing the different concentrations of tested compounds for 24 h, and then incubated with 10 µL of 3-(4,5-dimethylthiazol-2-yl)-2,5-diphenyltetrazolium bromide (MTT) at 37 °C for 3 h. In this step, 100 µL DMSO was added to dissolve the […]
(1 picture or pasted object on this page, not shown here) […]
as §2, §3
SH-SY5Y cells were maintained at 37 °C in a humidified atmosphere containing 5% CO2. Cells were seeded into multi-well plates at a density of 2~2.5 × 10^5 cells/mL in DMEM medium, supplemented with 10% heat-inactivated bovine calf serum (Gibco, South America Origin). Experiments were carried out in 24 h after cells were seeded. […]
Th e compounds were first dissolved with DMSO and then diluted with DMEM medium. […]

Series [3] concerns the target T3, BChE (EC 3.1.1.8, from human serum) (Homo sapiens, UniProt P06276).
T3 construct: BChE (EC 3.1.1.8, from human serum); purchased Sigma-Aldrich (St. Louis, MO, USA); host or cells: human serum
In words: biochemical. To be noted: for BChE IR (%) inhibition ratio: at 50 μM; for improved BChE inhibitory activity, folds compared with 1: compared with hit 1; for IC50: mean ± SD of three separate experiments. As to the method: (§4) BChE (EC 3.1.1.8, from human serum), AChE (EC […]), butyrylthiocholine (BUC) iodide, and acetylthiocholine (ATC) iodide were purchased from Sigma-Aldrich (St. Louis, MO, USA). Enzyme was dissolved and pre-prepared at 2.0 U/mL. 10 μL of enzyme, 20 μL of 0.01 M 5,5′-dithiobis(2-nitrobenzoic acid), 10 μL of tested compound, and 40 μL of PBS were pre-incubated together for 5 min. Io initiate the reaction, 20 μL of 0.01 M BUC or ATC was added. The activity was determined by measuring the increase in absorbance at 410 nm at 37 °C in 2 min intervals using Tecan Spark multimode microplate reader (Mannedorf, Switzerland). The percentage of inhibition (I) was calculated according to the formula: I = (Ac − Ai)/Ac × 100%, with Ai and Ac representing the change in the absorbance in the presence of an inhibitor and without an inhibitor, respectively.

Series [4] has as its target T4, AChE (from human erythrocyte) (Homo sapiens, UniProt P22303).
T4 construct: AChE (EC 3.1.1.8, from human erythrocyte); purchased Sigma-Aldrich (St. Louis, MO, USA); host or cells: human erythrocyte
In words: biochemical. Conditions: at 50 μM. The method, then: as §4

T3 sequence (P06276 29-602): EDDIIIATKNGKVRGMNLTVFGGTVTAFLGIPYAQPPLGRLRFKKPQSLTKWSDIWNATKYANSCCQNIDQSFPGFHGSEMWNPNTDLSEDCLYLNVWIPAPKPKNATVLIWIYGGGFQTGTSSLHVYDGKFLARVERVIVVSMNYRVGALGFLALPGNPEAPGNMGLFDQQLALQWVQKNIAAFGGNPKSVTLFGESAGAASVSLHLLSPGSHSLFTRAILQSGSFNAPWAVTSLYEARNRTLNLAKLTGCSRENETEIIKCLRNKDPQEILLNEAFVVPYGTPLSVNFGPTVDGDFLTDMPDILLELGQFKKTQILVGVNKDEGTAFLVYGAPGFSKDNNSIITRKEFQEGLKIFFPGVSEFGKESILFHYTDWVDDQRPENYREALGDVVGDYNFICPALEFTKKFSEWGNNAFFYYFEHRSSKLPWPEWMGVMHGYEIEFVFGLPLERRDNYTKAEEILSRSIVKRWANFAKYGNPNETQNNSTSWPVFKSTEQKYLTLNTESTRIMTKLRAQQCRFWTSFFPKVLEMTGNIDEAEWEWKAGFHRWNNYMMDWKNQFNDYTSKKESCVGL
T2 sequence (P05067 672-713): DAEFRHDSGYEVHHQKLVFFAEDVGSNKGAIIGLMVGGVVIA
T4 sequence (P22303 other isoform, or with tags, fused parts or gaps): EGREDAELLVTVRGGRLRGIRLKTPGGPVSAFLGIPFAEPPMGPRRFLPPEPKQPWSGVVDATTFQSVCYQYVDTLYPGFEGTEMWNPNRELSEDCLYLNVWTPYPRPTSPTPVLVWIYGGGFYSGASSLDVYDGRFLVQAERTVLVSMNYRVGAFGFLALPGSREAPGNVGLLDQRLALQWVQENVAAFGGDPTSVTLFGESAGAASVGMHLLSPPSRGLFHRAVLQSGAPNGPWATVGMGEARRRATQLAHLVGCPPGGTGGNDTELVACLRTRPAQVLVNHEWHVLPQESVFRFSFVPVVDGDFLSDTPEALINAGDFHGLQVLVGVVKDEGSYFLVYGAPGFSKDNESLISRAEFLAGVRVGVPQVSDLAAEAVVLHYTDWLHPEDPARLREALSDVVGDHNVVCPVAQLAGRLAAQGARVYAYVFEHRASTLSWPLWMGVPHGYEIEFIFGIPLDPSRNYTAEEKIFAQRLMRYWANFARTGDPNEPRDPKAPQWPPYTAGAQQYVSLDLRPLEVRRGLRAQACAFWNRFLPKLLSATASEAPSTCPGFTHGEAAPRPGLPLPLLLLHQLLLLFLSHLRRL
T1 sequence (P06276 29-602): as the sequence (P06276 29-602) above
Experimental for Aβ1-42 aggregation: The ThT-based fluorometric assay [54] was performed for the determination of compounds’ anti-Aβ1–42 aggregation potency.
Determination of the inhibitory potency on Aβ1–42 aggregation
1,1,1,3,3,3-hexafluoro-2-propanol (HFIP) pre-treated Aβ1–42 (GL Biochem Ltd, shanghai, China) was dissolved in DMSO to make a 200 μM stock solution. The stock solution was centrifuged at the speed of 13,500 rpm for 10 min. The above supernatant was used for further experiments. The compounds for testing were dissolved in DMSO at concentrations of 0.8 mM. A screening assay for the compounds to inhibit Aβ aggregation was performed by measuring ThT fluorescence emission.
μL) and 2 μL of 200 μM Aβ1–42 were added into 76 μL of phosphate-bufered saline (PBS at pH 7.4) in a 96-well microtiter plate. After incubation for 24 h at room temperature, 80 μL of 5 μM ThT solution (in 50 mM glycine-NaOH at pH 8.5) was added to the reaction solution. Fluorescence emission was measured at 490 nm with an excitation wavelength of 450 nm on a Tecan Spark multimode microplate reader. The fluorescence intensities were compared and the % inhibition was calculated by the following equation: 100 − [(Fi − Fb)/(Fo − Fb) × 100] where Fi, Fo and Fb are the fluorescence intensities obtained for Aβ aggregation in the presence of inhibitors, A β1– 42 and ThT; in the presence of Aβ1–42 and THT but no inhibitors; and the blanks

On to `O=C(O[C@@H]1Cc2c(O)cc(O)cc2O[C@@H]1c1cc(O)c(O)c(O)c1)c1cc(O)c(O)c(O)c1` [EGCG, epigallocatechin gallate, reference compound], for which the “cell viability of Aβ1-42-treated SH-SY5Y cells” value in series [1] (compound at 10 μM, 10 μM Aβ1-42 for 24h) stood at 87.18 ± 1.29%.

With `O=C(Nc1ccccc1Br)c1ccc(CN2CCc3ccccc3C2)cc1` [Compound 23, N-(2-bromophenyl)-4-((3,4-dihydroisoquinolin-2(1H)-yl)methyl)benzamide], at BChE (BChE, read-out: KI value (replot of slope against concentration)), the Ki amounted to 520 nM. In addition, on BChE (Lineweaver-Burk plots), the “type of BChE inhibition” value is recorded as “mixed-type inhibitor”. Also, at Aβ1-42 aggregation, the “inhibitory activity against Aβ1-42 aggregation (in words)” value is recorded as “dose-dependent manner” and the “inhibition ratio towards Aβ1-42 aggregation” value is 44.2 ± 3.3%. Moreover, in series [1], the viability at 5 µM worked out at 91.1 ± 1.25% and the viability at 10 µM amounted to 98 ± 1.7%. Also, the “cytotoxicity towards SH-SY5Y cells” value in series [2] is “did not show obvious cytotoxicity; also recorded: non-toxic”. In series [3], the “BChE IR (%) inhibition ratio” value is 97.9%; the “improved BChE inhibitory activity, folds compared with 1” value amounted to 21 fold; the IC50 turned out to be 830 ± 80 nM. For the same compound, the “fold increase in BChE inhibitory potency” value in series [3] (compared with 9) is reported as “about 3 fold”. In addition, the “fold increase in BChE inhibitory potency” value in series [3] (compared with 16) was approximately 8 fold. For the same compound, the “AChE IR (%) inhibition ratio” value in series [4] was 22.7%.

Take `O=C(c1ccc(CN2CCc3ccccc3C2)cc1)N1CCCC1` [Compound 9, (4-((3,4-dihydroisoquinolin-2(1H)-yl)methyl)phenyl)(pyrrolidin-1-yl)methanone]: on Aβ1-42 aggregation, the “inhibitory activity against Aβ1-42 aggregation (in words)” value was “dose-dependent manner” and the “inhibition ratio towards Aβ1-42 aggregation” value came out at 45.5 ± 6.2%. Further, in series [1], the viability at 5 µM is 84.7 ± 1.77% and the viability at 10 µM stood at 88.8 ± 0.81%. For the same compound, the “cytotoxicity towards SH-SY5Y cells” value in series [2] is on record as “did not show obvious cytotoxicity; also recorded: non-toxic”. Besides, in series [3], the “BChE IR (%) inhibition ratio” value is listed as 95.1%; the “improved BChE inhibitory activity, folds compared with 1” value is 9 fold; the midpoint of inhibition, the IC50, lay at 2680 ± 280 nM. In series [4], the “AChE IR (%) inhibition ratio” value is reported as 29.1%.
